Our source for the Emax and EC50 values is patent US20250367166A1, “NEXT GENERATION DIPROVOCIMS THAT ACTIVATE THE INNATE AND ADAPTIVE IMMUNE RESPONSE” (The Scripps Research Institute, priority 2022, published 2025).

Structures are written as SMILES. Like-named read-outs stand apart in the source and are kept apart here. Bounds are passed on as bounds.

For test [1], the target named is TLR1/TLR2 (Homo sapiens, UniProt O60603+Q15399). In words: TNF-α release from PMA-differentiated human THP-1 cells (ELISA).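 As to all read-outs here: cells exposed to graded compound concentrations for 4 h, TNF-α quantified in supernatant, LPS as positive and DMSO as negative control, values are duplicate means.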 The conditions noted are these: for Emax: THP-1, 4 h, read-out: Efficacy (magnitude) of response versus diprovocim-1 (100%), THP-1; for EC50: read-out: EC50 (nM) (THP-1): EC50 TNF-α release from human THP-1 cells. A general note: An ELISA detects its analyte on a solid surface through an enzyme-linked reagent.
Sequence of TLR1/TLR2 (Homo sapiens, UniProt O60603+Q15399) (Q15399 25-786): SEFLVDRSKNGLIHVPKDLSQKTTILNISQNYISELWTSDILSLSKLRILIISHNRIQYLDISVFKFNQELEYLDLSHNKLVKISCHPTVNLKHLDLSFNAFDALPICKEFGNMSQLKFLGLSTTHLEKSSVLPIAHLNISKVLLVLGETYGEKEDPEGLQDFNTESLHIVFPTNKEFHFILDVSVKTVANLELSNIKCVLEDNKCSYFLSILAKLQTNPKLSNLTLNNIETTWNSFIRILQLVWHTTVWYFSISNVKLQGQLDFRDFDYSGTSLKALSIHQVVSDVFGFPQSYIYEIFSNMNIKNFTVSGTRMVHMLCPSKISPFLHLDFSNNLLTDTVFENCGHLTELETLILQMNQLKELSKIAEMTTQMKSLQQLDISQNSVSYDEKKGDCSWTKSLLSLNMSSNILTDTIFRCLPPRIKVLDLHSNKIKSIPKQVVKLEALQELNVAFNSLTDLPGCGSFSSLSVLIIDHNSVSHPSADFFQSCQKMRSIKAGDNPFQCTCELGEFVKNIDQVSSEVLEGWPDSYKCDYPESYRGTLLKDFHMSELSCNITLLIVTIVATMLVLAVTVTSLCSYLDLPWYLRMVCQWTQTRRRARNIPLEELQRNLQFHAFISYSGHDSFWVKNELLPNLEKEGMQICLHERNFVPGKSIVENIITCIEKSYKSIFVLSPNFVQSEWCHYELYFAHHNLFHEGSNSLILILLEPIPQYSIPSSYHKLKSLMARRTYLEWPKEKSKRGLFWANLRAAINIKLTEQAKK
Sequence of TLR1/TLR2 (Homo sapiens, UniProt O60603+Q15399) (O60603 21-784): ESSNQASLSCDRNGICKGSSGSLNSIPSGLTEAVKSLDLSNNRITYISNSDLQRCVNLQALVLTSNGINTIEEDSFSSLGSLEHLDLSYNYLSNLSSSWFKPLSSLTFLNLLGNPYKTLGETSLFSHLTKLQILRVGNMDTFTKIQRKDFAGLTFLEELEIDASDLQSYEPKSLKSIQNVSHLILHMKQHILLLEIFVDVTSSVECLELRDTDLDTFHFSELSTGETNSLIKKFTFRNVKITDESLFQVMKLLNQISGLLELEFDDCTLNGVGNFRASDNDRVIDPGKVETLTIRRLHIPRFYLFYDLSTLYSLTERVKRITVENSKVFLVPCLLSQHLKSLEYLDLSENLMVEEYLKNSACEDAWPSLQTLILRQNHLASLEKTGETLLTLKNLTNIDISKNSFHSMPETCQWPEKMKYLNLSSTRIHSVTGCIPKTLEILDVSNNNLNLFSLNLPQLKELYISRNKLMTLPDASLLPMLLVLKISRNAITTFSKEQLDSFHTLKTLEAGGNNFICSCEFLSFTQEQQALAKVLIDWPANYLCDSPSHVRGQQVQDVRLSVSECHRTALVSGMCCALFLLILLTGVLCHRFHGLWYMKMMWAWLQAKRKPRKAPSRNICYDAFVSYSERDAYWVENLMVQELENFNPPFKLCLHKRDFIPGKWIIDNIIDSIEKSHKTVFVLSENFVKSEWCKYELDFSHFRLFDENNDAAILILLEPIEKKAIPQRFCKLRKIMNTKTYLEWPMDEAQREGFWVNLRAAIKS

Test [2] addresses TLR1/TLR2 (Mus musculus, UniProt Q9EPQ1+Q9QUN7). The test can be described thus: TNF-α release from thioglycolate-elicited mouse peritoneal macrophages (ELISA). Conditions: for Emax: 4 h, read-out: Efficacy (magnitude) of response versus diprovocim-1 (100%), mouse macrophages; for EC50: read-out: EC50 (nM) (mouse): EC50 TNF-α release from mouse macrophages.
Experimental: Thioglycolate-elicited macrophages were recovered 4 days after i.p. injection of 2 mL BBL thioglycolate medium, brewer modified (4%; BD Biosciences) by peritoneal lavage with 5 mL phosphate buffered saline (PBS). […] Cells were seeded onto 96-well plates at 1×10^3 cells per well and treated with systematically varied concentrations of the candidate compounds (dissolved in DMSO, and final assay DMSO concentrations (0.5%) were kept constant in all experiments) for 4 h. Ultra-pure LPS (dissolved in H2O, Enzo Life Sciences) was assessed alongside the compounds as a positive control and DMSO treated controls. […] Mouse TNF-α in the supernatants was measured by ELISA kits according to the manufacturer's instructions (eBioscience). EC50's were calculated by Graphpad Prism. All data is mean of duplicates and SD is within ±10% of mean. Mouse cells were from wild type C57BL/6J mice.

Sequence of TLR1/TLR2 (Mus musculus, UniProt Q9EPQ1+Q9QUN7) (Q9EPQ1 26-795): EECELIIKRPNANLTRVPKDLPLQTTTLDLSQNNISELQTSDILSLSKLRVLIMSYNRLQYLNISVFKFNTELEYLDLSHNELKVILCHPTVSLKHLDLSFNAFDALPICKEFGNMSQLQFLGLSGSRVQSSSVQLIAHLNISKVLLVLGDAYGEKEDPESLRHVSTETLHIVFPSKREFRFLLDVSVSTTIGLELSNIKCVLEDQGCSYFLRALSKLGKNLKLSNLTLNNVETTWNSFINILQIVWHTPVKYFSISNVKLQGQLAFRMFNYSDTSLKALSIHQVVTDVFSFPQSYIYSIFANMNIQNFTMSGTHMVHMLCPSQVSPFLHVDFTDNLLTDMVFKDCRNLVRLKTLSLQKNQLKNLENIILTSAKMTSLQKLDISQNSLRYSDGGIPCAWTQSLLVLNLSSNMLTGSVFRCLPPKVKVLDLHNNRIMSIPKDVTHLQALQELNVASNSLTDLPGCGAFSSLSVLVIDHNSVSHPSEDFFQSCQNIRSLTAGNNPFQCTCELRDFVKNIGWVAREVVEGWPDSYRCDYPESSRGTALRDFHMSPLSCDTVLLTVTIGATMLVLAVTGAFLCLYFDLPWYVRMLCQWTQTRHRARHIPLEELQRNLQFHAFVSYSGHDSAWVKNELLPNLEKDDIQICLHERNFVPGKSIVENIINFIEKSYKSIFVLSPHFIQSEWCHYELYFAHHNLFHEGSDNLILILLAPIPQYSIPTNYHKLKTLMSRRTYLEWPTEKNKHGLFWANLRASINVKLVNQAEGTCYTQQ
Sequence of TLR1/TLR2 (Mus musculus, UniProt Q9EPQ1+Q9QUN7) (Q9QUN7 25-784): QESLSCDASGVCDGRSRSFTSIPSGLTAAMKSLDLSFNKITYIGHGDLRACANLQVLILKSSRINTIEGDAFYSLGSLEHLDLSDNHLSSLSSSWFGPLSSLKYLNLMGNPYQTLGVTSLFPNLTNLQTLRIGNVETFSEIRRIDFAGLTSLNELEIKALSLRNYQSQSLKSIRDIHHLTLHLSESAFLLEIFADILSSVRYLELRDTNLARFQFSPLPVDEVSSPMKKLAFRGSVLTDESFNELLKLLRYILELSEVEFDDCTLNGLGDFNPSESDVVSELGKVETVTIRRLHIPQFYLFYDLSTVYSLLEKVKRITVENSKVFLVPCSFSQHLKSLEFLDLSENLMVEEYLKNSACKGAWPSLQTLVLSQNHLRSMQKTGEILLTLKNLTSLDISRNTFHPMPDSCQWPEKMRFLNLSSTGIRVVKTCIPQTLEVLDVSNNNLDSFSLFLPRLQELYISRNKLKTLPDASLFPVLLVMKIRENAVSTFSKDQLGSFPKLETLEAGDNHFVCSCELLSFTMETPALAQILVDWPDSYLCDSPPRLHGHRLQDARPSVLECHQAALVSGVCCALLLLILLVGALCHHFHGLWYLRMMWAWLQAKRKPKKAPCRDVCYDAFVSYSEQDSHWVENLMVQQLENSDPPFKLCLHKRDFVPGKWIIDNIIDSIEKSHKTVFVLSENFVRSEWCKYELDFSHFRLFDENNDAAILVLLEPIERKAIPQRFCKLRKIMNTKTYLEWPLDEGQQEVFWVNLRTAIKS

In general, EC50 refers to the concentration at which the effect is half-maximal. Take `O=C(OCCCCCCCCCCCCNC(=O)[C@@H]1CN(C(=O)c2ccc(C(=O)N3C[C@@H](C(=O)N[C@H]4C[C@@H]4c4ccccc4)[C@H](C(=O)N[C@H]4C[C@@H]4c4ccccc4)C3)cc2)C[C@H]1C(=O)N[C@H]1C[C@@H]1c1ccccc1)c1ccc(O)cc1` [Compound 75, 12-((3S,4S)-1-(4-((3S,4S)-3,4-Bis(((1S,2R)-2-phenylcyclopropyl)carbamoyl)pyrrolidine-1-carbonyl)benzoyl)-4-(((1S,2R)-2-phenyl-cyclopropyl)carbamoyl)pyrrolidine-3-carboxamido)-dodecyl 4-hydroxybenzoate]: the Emax is 100% in test [1] and 540% in test [2]. Besides, the EC50 in test [1] (Table 6) amounted to 1.7 nM; in test [2] (Table 6), 50 nM.
Regarding `[N-]=[N+]=NCC(=O)OCCCCCCCCCCCCNC(=O)[C@@H]1CN(C(=O)c2ccc(C(=O)N3C[C@@H](C(=O)N[C@H]4C[C@@H]4c4ccccc4)[C@H](C(=O)N[C@H]4C[C@@H]4c4ccccc4)C3)cc2)C[C@H]1C(=O)N[C@H]1C[C@@H]1c1ccccc1` [Compound 34, 12-((3S,4S)-1-(4-((3S,4S)-3,4-Bis(((1S,2R)-2-phenylcyclopropyl)carbamoyl)pyrrolidine-1-carbonyl)-benzoyl)-4-(((1S,2R)-2-phenylcyclopropyl)carbamoyl)-pyrrolidine-3-carboxamido)dodecyl 2-azidoacetate], the Emax is 100% in test [1] and 120% in test [2]. Also, the EC50 in test [1] (Table 3) was found to be 0.21 nM; in test [2] (Table 3) it was 3.7 nM.
As to `O=C(NCCc1ccccc1)[C@@H]1CN(C(=O)c2ccc(C(=O)N3C[C@@H](C(=O)N[C@H]4C[C@@H]4c4ccccc4)[C@H](C(=O)N[C@H]4C[C@@H]4c4ccccc4)C3)cc2)C[C@H]1C(=O)N[C@H]1C[C@@H]1c1ccccc1` [Compound 23, (3S,4S)-1-(4-((3S,4S)-3,4-Bis(((1S,2R)-2-phenyl-cyclopropyl)carbamoyl)pyrrolidine-1-carbonyl)-benzoyl)-N^3-phenethyl-N^4-((1S,2R)-2-phenylcyclo-propyl)pyrrolidine-3,4-dicarboxamide], the EC50 stood at 1.5 nM in test [1] (Table 1) and 30 nM in test [2] (Table 1).
Turning to `CC(C)(C)OC(=O)NCC(=O)NCC(=O)OCCCCCCCCCCCCNC(=O)[C@@H]1CN(C(=O)c2ccc(C(=O)N3C[C@@H](C(=O)N[C@H]4C[C@@H]4c4ccccc4)[C@H](C(=O)N[C@H]4C[C@@H]4c4ccccc4)C3)cc2)C[C@H]1C(=O)N[C@H]1C[C@@H]1c1ccccc1` [Compound 72, 12-((3S,4S)-1-(4-((3S,4S)-3,4-Bis(((1S,2R)-2-phenyl-cyclopropyl)carbamoyl)pyrrolidine-1-carbonyl)benzoyl)-4-(((1S,2R)-2-phenylcyclopropyl)carbamoyl)pyrrolidine-3-carboxamido)-dodecyl 2-(2-((tert-butoxycarbonyl)amino)acetamido)acetate], the Emax in test [1] and in test [2] was 110% each time. The EC50 was 0.52 nM in test [1] (Table 5) and 2.5 nM in test [2] (Table 5).
Take `CNC(=O)CCCCCCCCCCCNC(=O)[C@@H]1CN(C(=O)c2ccc(C(=O)N3C[C@@H](C(=O)N[C@H]4C[C@@H]4c4ccccc4)[C@H](C(=O)N[C@H]4C[C@@H]4c4ccccc4)C3)cc2)C[C@H]1C(=O)N[C@H]1C[C@@H]1c1ccccc1` [Compound 13, (3S,4S)-1-(4-((3S,4S)-3,4-Bis(((1S,2R)-2-phenylcyclo-propyl)carbamoyl)pyrrolidine-1-carbonyl)-benzoyl)-N^3-(12-(methylamino)-12-oxododecyl)-N^4-((1S,2R)-2-phenyl-cyclopropyl)pyrrolidine-3,4-dicarboxamide]: the Emax turned out to be 120% in test [1] and 150% in test [2]. Besides, the EC50 in test [1] (Table 1) amounted to 1 nM; in test [2] (Table 1), 60 nM.
`O=C(NCCCCCCCCCCCCS)[C@@H]1CN(C(=O)c2ccc(C(=O)N3C[C@@H](C(=O)N[C@H]4C[C@@H]4c4ccccc4)[C@H](C(=O)N[C@H]4C[C@@H]4c4ccccc4)C3)cc2)C[C@H]1C(=O)N[C@H]1C[C@@H]1c1ccccc1` [Compound 21, (3S,4S)-1-(4-((3S,4S)-3,4-Bis(((1S,2R)-2-phenyl-cyclopropyl)carbamoyl)pyrrolidine-1-carbonyl)-benzoyl)-N^3-(12-mercaptododecyl)-N^4-((1S,2R)-2-phenyl-cyclo-propyl)pyrrolidine-3,4-dicarboxamide]: the EC50 amounted to 0.5 nM in test [1] (Table 1) and 5 nM in test [2] (Table 1).
Consider `CC(C)(C)Oc1ccc(C(=O)OCCCCCCCCCCCCNC(=O)[C@@H]2CN(C(=O)c3ccc(C(=O)N4C[C@@H](C(=O)N[C@H]5C[C@@H]5c5ccccc5)[C@H](C(=O)N[C@H]5C[C@@H]5c5ccccc5)C4)cc3)C[C@H]2C(=O)N[C@H]2C[C@@H]2c2ccccc2)cc1` [Compound 76, 12-((3S,4S)-1-(4-((3S,4S)-3,4-Bis(((1S,2R)-2-phenylcyclopropyl)carbamoyl)pyrrolidine-1-carbonyl)benzoyl)-4-(((1S,2R)-2-phenyl-cyclopropyl)carbamoyl)pyrrolidine-3-carboxamido)-dodecyl 4-(tert-butoxy)benzoate], for which the Emax in test [1] was < 50%; in test [2], 150%. The EC50 in test [1] (Table 6) came out at 27 nM; in test [2] (Table 6) it was 540 nM.
For the molecule `CC[C@H](C)[C@H](NC(=O)OC(C)(C)C)C(=O)OCCCCCCCCCCCCNC(=O)[C@@H]1CN(C(=O)c2ccc(C(=O)N3C[C@@H](C(=O)N[C@H]4C[C@@H]4c4ccccc4)[C@H](C(=O)N[C@H]4C[C@@H]4c4ccccc4)C3)cc2)C[C@H]1C(=O)N[C@H]1C[C@@H]1c1ccccc1` [Compound 61, (2S,3S)-12-((3S,4S)-1-(4-((3S,4S)-3,4-Bis(((1S,2R)-2-phenylcyclopropyl)carbamoyl)pyrrolidine-1-carbonyl)-benzoyl)-4-(((1S,2R)-2-phenylcyclopropyl)carbamoyl)-pyrrolidine-3-carboxamido)-dodecyl 2-((tert-butoxy-carbonyl)amino)-3-methylpentanoate], the Emax in test [1] worked out at 100%; in test [2], 140%. In addition, the EC50 in test [1] (Table 5) came out at 9 nM; in test [2] (Table 5), 50 nM.
